Target: T1, human TLR9 (Homo sapiens, UniProt Q9NR96)
T1 sequence (Q9NR96 26-1032): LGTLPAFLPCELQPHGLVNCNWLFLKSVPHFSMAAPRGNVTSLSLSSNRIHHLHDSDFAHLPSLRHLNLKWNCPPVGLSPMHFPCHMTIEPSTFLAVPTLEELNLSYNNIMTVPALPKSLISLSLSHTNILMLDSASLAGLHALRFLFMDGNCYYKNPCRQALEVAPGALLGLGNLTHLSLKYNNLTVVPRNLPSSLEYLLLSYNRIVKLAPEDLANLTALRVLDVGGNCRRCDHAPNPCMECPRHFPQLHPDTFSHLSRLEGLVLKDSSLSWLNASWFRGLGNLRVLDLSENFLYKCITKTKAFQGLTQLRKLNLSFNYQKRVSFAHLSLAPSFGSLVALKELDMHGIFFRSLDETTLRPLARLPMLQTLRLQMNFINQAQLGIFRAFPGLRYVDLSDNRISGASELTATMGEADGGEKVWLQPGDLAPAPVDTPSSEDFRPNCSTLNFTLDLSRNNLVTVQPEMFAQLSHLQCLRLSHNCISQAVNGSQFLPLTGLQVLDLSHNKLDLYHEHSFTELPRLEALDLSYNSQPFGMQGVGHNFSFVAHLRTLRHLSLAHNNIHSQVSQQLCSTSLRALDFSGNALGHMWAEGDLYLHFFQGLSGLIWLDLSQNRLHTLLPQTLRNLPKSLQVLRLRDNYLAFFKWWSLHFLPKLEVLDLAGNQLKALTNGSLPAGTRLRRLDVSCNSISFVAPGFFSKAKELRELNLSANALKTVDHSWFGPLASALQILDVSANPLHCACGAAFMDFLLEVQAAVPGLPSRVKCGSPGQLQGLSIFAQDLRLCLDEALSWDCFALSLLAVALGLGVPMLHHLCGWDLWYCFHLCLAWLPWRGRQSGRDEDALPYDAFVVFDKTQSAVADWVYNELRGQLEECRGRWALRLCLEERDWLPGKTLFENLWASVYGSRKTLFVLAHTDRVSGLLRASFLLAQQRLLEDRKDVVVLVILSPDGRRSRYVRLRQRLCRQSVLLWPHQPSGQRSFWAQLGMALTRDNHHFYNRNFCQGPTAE
Experiment: HEK293-Blue-hTLR-9 cells assay (SEAP reporter, ODN2006 stimulation)
Type: cell-based
Conditions: HEK293-Blue-hTLR9 cells, ODN2006, 20 hrs incubation; read-out: HEK/hTLR9 IC50
Procedure: The following tests were carried out in order to determine the activity of the compounds of formula (I), (Ia) or (Ib) in HEK293-Blue-hTLR-7/8/9 cells assay.
HEK293-Blue-hTLR-9 Cells Assay:
A stable HEK293-Blue-hTLR-9 cell line was purchased from InvivoGen (Cat.#: hkb-htlr9, San Diego, Calif., USA). These cells were originally designed for studying the stimulation of human TLR9 by monitoring the activation of NF-κB. A SEAP (secreted embryonic alkaline phosphatase) reporter gene was placed under the control of the IFN-β minimal promoter fused to five NF-κB and AP-1-binding sites. The SEAP was induced by activating NF-κB and AP-1 via stimulating HEK-Blue hTLR9 cells with TLR9 ligands. Therefore the reporter expression was declined by TLR9 antagonist under the stimulation of a ligand, such as ODN2006 (Cat.#: tlrl-2006-1, Invivogen, San Diego, Calif., USA), for incubation of 20 hrs. The cell culture supernatant SEAP reporter activity was determined using QUANTI-Blue™ kit (Cat.#: rep-qb1, Invivogen, San Diego, Calif., USA) at a wavelength of 640 nm, a detection medium that turns purple or blue in the presence of alkaline phosphatase.
HEK293-Blue-hTLR9 cells were incubated at a density of 250,000-450,000 cells/mL in a volume of 170 μL in a 96-well plate in Dulbecco's Modified Eagle's medium (DMEM) containing 4.5 g/L glucose, 50 U/mL penicillin, […], 2 mM L-glutamine, 10% (v/v) heat-inactivated fetal bovine serum with addition of 20 μL test compound in a serial dilution in the presence of final DMSO at 1% and 10 μL of 20 uM ODN2006 in above DMEM, perform incubation under 37° C. in a CO2 incubator for 20 hrs. Then 20 μL of the supernatant from each well was incubated with 180 μL Quanti-blue substrate solution at 37° C. for 2 h and the absorbance was read at 620-655 nm using a spectrophotometer. The signaling pathway that TLR9 activation leads to downstream NF-κB activation has been widely accepted, and therefore similar reporter assay was modified for evaluating TLR9 antagonist.

IC50 [nM] | SMILES
109 | CO[C@H]1CNC[C@H]1Nc1ccc2c(c1)C[C@H]1CN(c3ccc(C#N)c4ncccc34)C[C@@H](C)N1C2 [Example 7, 5-[(4R,11aS)-9-[[(3R,4S)-4-methoxypyrrolidin-3-yl]amino]-4-methyl-1,3,4,6,11,11a-hexahydropyrazino[1,2-b]isoquinolin-2-yl]quinoline-8-carbonitrile]
106 | C[C@@H]1CN(c2ccc(C#N)c3ncccc23)C[C@@H]2Cc3cc(N[C@@H]4CNC[C@@H]4F)ccc3CN21 [Example 6, 5-[(4R,11aS)-4-methyl-9-[[(3R,4S)-4-fluoropyrrolidin-3-yl]amino]-1,3,4,6,11,11a-hexahydropyrazino[1,2-b]isoquinolin-2-yl]quinoline-8-carbonitrile]
78.2 | C[C@@H]1CN(c2ccc(C#N)c3ncccc23)C[C@@H]2Cc3cc(N4CC5NCCOC5C4)ccc3CN21 (stereo in doubt) [Example 10, 5-[(4R,11aS)-9-[(4aS,7aS)-3,4,4a,5,7,7a-hexahydro-2H-pyrrolo[3,4-b][1,4]oxazin-6-yl]-4-methyl-1,3,4,6,11,11a-hexahydropyrazino[1,2-b]isoquinolin-2-yl]quinoline-8-carbonitrile]
139 | CO[C@H]1CN(c2ccc3c(c2)C[C@H]2CN(c4ccc(C#N)c5ncccc45)C[C@@H](C)N2C3)C[C@H]1N [Example 9, 5-[(4R,11aS)-9-[(3R,4S)-3-amino-4-methoxy-pyrrolidin-1-yl]-4-methyl-1,3,4,6,11,11a-hexahydropyrazino[1,2-b]isoquinolin-2-yl]quinoline-8-carbonitrile]
254 | C[C@@H]1CN(c2ccc(C#N)c3ncccc23)C[C@@H]2Cc3cc(N4CCN(C(=O)[C@]5(C)CCCN5)CC4)ccc3CN21 [Example 14, 5-[(4R,11aS)-4-methyl-9-[4-[(2S)-2-methylpyrrolidine-2-carbonyl]piperazin-1-yl]-1,3,4,6,11,11a-hexahydropyrazino[1,2-b]isoquinolin-2-yl]quinoline-8-carbonitrile]
81 | C[C@@H]1CN(c2ccc(C#N)c3ncccc23)C[C@@H]2Cc3cc(OCCN(C)C)ccc3CN21 [Example 11, 5-[(4R,11aS)-9-[2-(dimethylamino)ethoxy]-4-methyl-1,3,4,6,11,11a-hexahydropyrazino[1,2-b]isoquinolin-2-yl]quinoline-8-carbonitrile]
44.5 | C[C@@H]1CN(c2ccc(C#N)c3ncccc23)C[C@@H]2Cc3cc(N4CC5CNCCC5C4=O)ccc3CN21 (stereo partly drawn) [Example 19, 5-[(4R,11aS)-4-methyl-9-(1-oxo-3a,4,5,6,7,7a-hexahydro-3H-pyrrolo[3,4-c]pyridin-2-yl)-1,3,4,6,11,11a-hexahydropyrazino[1,2-b]isoquinolin-2-yl]quinoline-8-carbonitrile]
96.3 | C[C@@H]1CN(c2ccc(C#N)c3ncccc23)C[C@@H]2Cc3ccc(OCCN(C)C)cc3CN21 [Example 5, 5-[(4R,11aS)-8-[2-(dimethylamino)ethoxy]-4-methyl-1,3,4,6,11,11a-hexahydropyrazino[1,2-b]isoquinolin-2-yl]quinoline-8-carbonitrile]
64.6 | C[C@@H]1CN(c2ccc(C#N)c3ncccc23)C[C@@H]2Cc3cc(N4CC5CCNCC5C4=O)ccc3CN21 (stereo partly drawn) [Example 18, 5-[(4R,11aS)-4-methyl-9-(3-oxo-3a,4,5,6,7,7a-hexahydro-1H-pyrrolo[3,4-c]pyridin-2-yl)-1,3,4,6,11,11a-hexahydropyrazino[1,2-b]isoquinolin-2-yl]quinoline-8-carbonitrile]
107 | C[C@@H]1CN(c2ccc(C#N)c3ncccc23)C[C@@H]2Cc3cc(N4C[C@@H]5CNCCN5C4=O)ccc3CN21 (single isomer, unassigned) [Example 17A]
64.6 | C[C@@H]1CN(c2ccc(C#N)c3ncccc23)C[C@@H]2Cc3ccc(N4CCOCC(N)C4)cc3CN21 (stereo partly drawn) [Example 1, 5-[(4R,11aS)-8-(6-amino-1,4-oxazepan-4-yl)-4-methyl-1,3,4,6,11,11a-hexahydropyrazino[1,2-b]isoquinolin-2-yl]quinoline-8-carbonitrile]
125 | C[C@@H]1CN(c2ccc(C#N)c3ncccc23)C[C@@H]2Cc3cc(N4CC(N)CC4=O)ccc3CN21 (stereo partly drawn) [Example 16, 5-[(4R,11aS)-9-(4-amino-2-oxo-pyrrolidin-1-yl)-4-methyl-1,3,4,6,11,11a-hexahydropyrazino[1,2-b]isoquinolin-2-yl]quinoline-8-carbonitrile]
116 | C[C@@H]1CN(c2ccc(C#N)c3ncccc23)C[C@@H]2Cc3cc(OC[C@@H]4CCN4)ccc3CN21 [Example 12, 5-[(4R,11aS)-9-[[(2S)-azetidin-2-yl]methoxy]-4-methyl-1,3,4,6,11,11a-hexahydropyrazino[1,2-b]isoquinolin-2-yl]quinoline-8-carbonitrile]
44.5 | C[C@@H]1CN(c2ccc(C#N)c3ncccc23)C[C@@H]2Cc3ccc(NCCN4CC[C@H](O)C4)cc3CN21 [Example 2, 5-[(4R,11aS)-8-[2-[(3S)-3-hydroxypyrrolidin-1-yl]ethylamino]-4-methyl-1,3,4,6,11,11a-hexahydropyrazino[1,2-b]isoquinolin-2-yl]quinoline-8-carbonitrile]
106 | C[C@@H]1CN(c2ccc(C#N)c3ncccc23)C[C@@H]2Cc3cc(N4C[C@H]5CNCCN5C4=O)ccc3CN21 (single isomer, unassigned) [Example 17B]
125 | C[C@@H]1CN(c2ccc(C#N)c3ncccc23)C[C@@H]2Cc3cc(N4C[C@@H]5C[C@H]4CN5C(=O)C(C)(C)N)ccc3CN21 [Example 15, 5-[(4R,11aS)-9-[(1S,4S)-5-(2-amino-2-methyl-propanoyl)-2,5-diazabicyclo[2.2.1]heptan-2-yl]-4-methyl-1,3,4,6,11,11a-hexahydropyrazino[1,2-b]isoquinolin-2-yl]quinoline-8-carbonitrile]
85.3 | C[C@@H]1CN(c2ccc(C#N)c3ncccc23)C[C@@H]2Cc3cc(N4C[C@@H](F)[C@@H](N)C4)ccc3CN21 [Example 8, 5-[(4R,11aS)-9-[(3S,4R)-3-amino-4-fluoro-pyrrolidin-1-yl]-4-methyl-1,3,4,6,11,11a-hexahydropyrazino[1,2-b]isoquinolin-2-yl]quinoline-8-carbonitrile]
85.6 | C[C@@H]1CN(c2ccc(C#N)c3ncccc23)C[C@@H]2Cc3cc(N4CCN(C(=O)C(C)(C)N)CC4)ccc3CN21 [Example 13, 5-[(4R,11aS)-9-[4-(2-amino-2-methyl-propanoyl)piperazin-1-yl]-4-methyl-1,3,4,6,11,11a-hexahydropyrazino[1,2-b]isoquinolin-2-yl]quinoline-8-carbonitrile]

Source: US20230002375A1, “HYDROPYRAZINO[1,2-B]ISOQUINOLINE COMPOUNDS FOR THE TREATMENT OF AUTOIMMUNE DISEASE” (Hoffmann-La Roche Inc., priority 2019, published 2023)
